According to publication PMC11242993, “Evaluation of the Therapeutic Potential of Sulfonyl Urea Derivatives as Soluble Epoxide Hydrolase (sEH) Inhibitors” (Molecules, 2024):
“Also recorded” adds a separate entry of the source.

Key:
mice = assay: LPS-induced acute lung injury (ALI) model; type: in vivo; conditions: 10 mg/kg i.p.
Description: LPS-induced acute lung injury induced by a single oropharyngeal instillation of lipopolysaccharide (LPS) (50 µg/mouse) in 16-week-old mice as described previously. Briefly, LPS (L4391, MilliporeSigma, Burlington, MA, USA) was dissolved in sterile saline and administered at 50 µg/mouse in 40 µL after anesthesia induced by ketamine/xylazine. The mice were studied 24 h after LPS or saline instillation.
BALF was collected from anesthetized mice by lavaging lungs two times with 0.8 mL Hanks’ balanced salt solution without calcium and magnesium (HBSS) (Sigma-Aldrich, St. Louis, MI, USA). Supernatants were collected as BALF for further analyses.
The number of cells in the BALF was estimated using an automated cell counter, the Countess II FL cell counter (Thermo Fisher Scientific Inc., Waltham, MA, USA).
Albumin levels were measured by the Mouse Albumin Elisa Assay kit (Cat # E99-134), which was obtained from Bethyl Laboratories. BALF samples from the LPS group were diluted at a 1:2000 ratio.
Total protein in BALF samples was measured using the Pierce BCA protein assay kit (Cat # 23225) as detailed in the product manual (Thermo Fisher Scientific).
The right middle lobe was immediately placed in an RNA later solution and stored at −80 °C until the RNA extraction procedure. RNA extraction was performed using RNeasy Mini Kits from Qiagen (Valencia, CA, USA). One microgram of total RNA was reverse transcribed to cDNA using an iScript cDNA synthesis kit (Bio-Rad, Hercules, CA, USA). Expression of the target genes was quantified using gene-specific primers and PowerSYBRGreen master mix (Thermo Fisher Scientific) in a QuantStudio 3 Real-Time PCR instrument (Thermo Fisher Scientific). Predesigned mouse IL-6 (QT00098875), TNF-α (QT00104006), IL-1β (QT01048355), CXCL1 (QT00115647), CCL2 (QT00167832), CXCL3 (QT00151599) and CXCL9 (QT00097062) primers were purchased from Qiagen (Valencia, CA, USA). Fold changes in gene expression relative to the housekeeping gene TATA-Box Binding Protein (Tbp, QT00198443) were determined. Gene expression values were calculated based on the […] method.

Caco-2 cells = assay: Caco-2 permeability; type: in vitro ADME
Description: Caco-2 cells were cultured in 75 cm^2 flasks to 80–90% confluence according to the ATCC and Millipore recommendations in a humidified atmosphere at 37 °C and 5% CO2. Cells were detached with a trypsin/EDTA solution, resuspended in the complete medium containing DMEM high glucose ([…]) with L-glutamine (4 mM) supplemented with 10% heat-inactivated Fetal Bovine Serum, 1% non-essential amino acids, and 730 nM puromycin, and seeded at a density of 5 × 10^5 cells in a 75 cm^2 flask. After 5 days, cells were trypsinized and resuspended in the complete medium to a final concentration of 600 × 10^3 cells/mL. Of the cell suspension, 400 µL was added to each well of an HTS 24-Multiwell Insert System and 25 mL of prewarmed complete medium was added to the feeder tray. Caco-2 cells were incubated in the Multiwell Insert System for 6–10 days before the transport experiments. The medium in the filter plate and feeder tray was refreshed every other day. Prior to the transport experiment, the integrity of the monolayer was verified by measuring the transepithelial electrical resistance (TEER) for every well using a Millicell-ERS system ohm meter. The final TEER values were within the range of 150–600 Ω × cm^2, as required for the assay conditions. The 24-well insert plate was removed from its feeder plate and placed in a new sterile 24-well transport analysis plate. The inserts were washed with PBS after medium aspiration. Ketoprofen, atenolol, digoxin, and quinidine were used as reference compounds.
To determine transport rates in the basolateral (B)-to-apical (A) direction, 1000 μL of the test compound solutions was added into the wells of the transport analysis plate, and the wells in the filter plate were filled with 300 μL of buffer (apical compartment).
The effect of the inhibitor on the Pgp-mediated transport of the tested compounds was assessed by determining the bidirectional transport in the presence or absence of verapamil. The Caco-2 cells were preincubated for 30 min at 37 °C with 100 μM of verapamil in both apical and basolateral compartments. After removal of the preincubation medium, the test compounds with verapamil (100 μM) in transport buffer were added in donor wells, while the receiver wells were filled with the appropriate volume of transport buffer with 100 μM of verapamil. The final amounts of test and reference compounds were 10 μM each. The plates were incubated for 90 min at 37 °C under continuous shaking at 100 rpm. Aliquots of 75 μL were taken from the donor and receiver compartments for LC–MS/MS analysis. All samples were mixed with 2 volumes of acetonitrile followed by protein sedimentation by centrifuging at 10,000 rpm for 10 min. Supernatants were analyzed using the HPLC system coupled with a tandem mass spectrometer.

[1] = Plasma protein binding (equilibrium dialysis), human; type: in vitro ADME; conditions: for fraction unbound at 5 h, 1 μM: plasma (non-diluted), pH 7.4, read-out: Plasma Protein Binding Human % of Bound Comp
Description: The assay was performed in a multiple-use 96-well dialysis unit (HTD96b dialyzer). Each individual well unit consisted of 2 chambers separated by a vertically aligned dialysis membrane of predetermined pore size (MWCO 12–14 kDa). An amount of 120 μL of non-diluted plasma spiked with the compound (1 μM, final DMSO concentration 1%) was added to one chamber, and the same volume of PBS buffer with pH 7.4 was added to the other chamber. The HTD96b dialyzer was covered with adhesive sealing film and incubated at 37 °C and shaken at 100 rpm for 5 h. For sample preparation, an aliquot of the content of each chamber was mixed with the same volume of the blank opposite matrix. To define the non-specific loss of the compound during this assay, a standard solution was created by mixing an aliquot of spiked plasma with a blank buffer without dialysis. Two aliquots of the standard solution were incubated at 37 °C and shaken at 100 rpm for 5 h (recovery samples). The other two aliquots were immediately diluted with acetonitrile and stored at 4 °C until LC–MS/MS analysis (stability samples). All samples were diluted 5-fold with 100% methanol with subsequent plasma protein sedimentation by centrifuging at 6000 rpm for 5 min. Supernatants were analyzed using the HPLC system coupled with a tandem mass spectrometer.

Structure (SMILES)	effect on LPS-induced increase in total protein in BALF (mice)	number of cells in bronchoalveolar lavage (BAL) (mice)	LPS-induced lung gene expression of interleukin 1B (IL-1B) (mice; qPCR)	lung gene expression of CCL-2 (mice; qPCR)	lung gene expression of CXCL1 (mice; qPCR)	LPS-induced lung gene expression of interleukin 6 (IL-6) (mice; qPCR, 10 mg/kg)	Pgp substrate status from Caco-2 efflux ratio (Caco-2 cells)	brain penetrability judged from Caco-2 permeability (Caco-2 cells)	compound stability in plasma during dialysis [1]	fraction unbound at 5 h, 1 μM [1]	LPS-induced lung gene expression of interleukin 6 (IL-6) (mice; qPCR)
O=C(NC12CC3CC(CC(C3)C1)C2)NS(=O)(=O)c1ccc(OC(F)(F)F)cc1 [Compound 4f]	neither AUDA nor novel sEH inhibitors’ (4f and 4l) effect	similarly attenuated the number of cells in BAL	attenuated	more pronounced in reducing IL-6 and CCL-2 expressions	similarly attenuated	attenuated; also recorded: more pronounced in reducing IL-6 and CCL-2 expressions	not Pgp substrates	brain penetrable	99%	< 0.001	
O=C(NC12CC3CC(CC(C3)C1)C2)NS(=O)(=O)c1ccc2ccccc2c1 [Compound 4l]	neither AUDA nor novel sEH inhibitors’ (4f and 4l) effect		had no effect on reducing these					brain penetrable	99%	< 0.001	had no effect on reducing these
